Assay results reported in the NIST ThermoML archive (doi:10.1021/je025657+).
“And” between values parts separate entries of the source, which are not always exact repeats. Equal entries are not always repeated. Numbers after ± are expanded uncertainties.

Details: for vapor or sublimation pressure: Closed cell (Static) method

SMILES: COC(F)(F)F [trifluoromethoxymethane]
- mass density (350 K, 2141.2 kPa, Liquid): 873.54 ± 0.73 kg/m3
- mass density (350 K, 2548.5 kPa, Liquid): 883.49 ± 0.7 kg/m3
- mass density (350 K, 3078 kPa, Liquid): 894.77 ± 0.68 kg/m3
- mass density (350 K, 3561.7 kPa, Liquid): 903.94 ± 0.65 kg/m3
- mass density (350 K, 4061.4 kPa, Liquid): 912.5 ± 0.63 kg/m3
- mass density (350 K, 4604.4 kPa, Liquid): 920.96 ± 0.61 kg/m3
- mass density (350 K, 5110.9 kPa, Liquid): 928.26 ± 0.59 kg/m3
- mass density (350 K, 5614.7 kPa, Liquid): 935 ± 0.56 kg/m3
- mass density (350 K, 6145.6 kPa, Liquid): 941.66 ± 0.54 kg/m3
- mass density (350 K, 6708.6 kPa, Liquid): 948.27 ± 0.52 kg/m3
- mass density (350 K, 7180.7 kPa, Liquid): 953.51 ± 0.51 kg/m3
- mass density (350 K, Liquid): 871.95 ± 2.6 kg/m3
- vapor or sublimation pressure (350 K, Liquid): 2074.9 ± 3.2 kPa and 2075 ± 3.2 kPa and 2071.7 ± 3.2 kPa
- vapor or sublimation pressure (355 K, Liquid): 2304.3 ± 3.6 kPa
- mass density (360 K, 150.4 kPa, Gas, Burnett expansion method): 5.122 ± 0.1 kg/m3
- mass density (360 K, 208.1 kPa, Gas, Burnett expansion method): 7.139 ± 0.1 kg/m3
- mass density (360 K, 223.5 kPa, Gas, Burnett expansion method): 7.683 ± 0.1 kg/m3
- mass density (360 K, 330.6 kPa, Gas, Burnett expansion method): 11.52 ± 0.1 kg/m3
- mass density (360 K, 455 kPa, Gas, Burnett expansion method): 16.13 ± 0.1 kg/m3
- mass density (360 K, 484.7 kPa, Gas, Burnett expansion method): 17.25 ± 0.1 kg/m3
- mass density (360 K, 704.6 kPa, Gas, Burnett expansion method): 25.9 ± 0.11 kg/m3
- mass density (360 K, 952.6 kPa, Gas, Burnett expansion method): 36.41 ± 0.11 kg/m3
- mass density (360 K, 1007.9 kPa, Gas, Burnett expansion method): 38.88 ± 0.11 kg/m3
- mass density (360 K, 1335.8 kPa, Gas, Burnett expansion method): 54.71 ± 0.11 kg/m3
- mass density (360 K, 1406.7 kPa, Gas, Burnett expansion method): 58.43 ± 0.11 kg/m3
- mass density (360 K, 1807.1 kPa, Gas, Burnett expansion method): 82.26 ± 0.11 kg/m3
- mass density (360 K, 1888.4 kPa, Gas, Burnett expansion method): 87.85 ± 0.11 kg/m3
- mass density (360 K, 2309 kPa, Gas, Burnett expansion method): 123.6 ± 0.1 kg/m3
- mass density (360 K, 2385.4 kPa, Gas, Burnett expansion method): 132 ± 0.1 kg/m3
- mass density (360 K, 2566.6 kPa, Liquid): 806.04 ± 1 kg/m3
- mass density (360 K, 2595.3 kPa, Liquid): 807.47 ± 1 kg/m3
- mass density (360 K, 2674 kPa, Liquid): 811 ± 0.99 kg/m3
- mass density (360 K, 3046.9 kPa, Liquid): 825.94 ± 0.95 kg/m3
- mass density (360 K, 3567.7 kPa, Liquid): 842.69 ± 0.91 kg/m3
- mass density (360 K, 4099.1 kPa, Liquid): 856.85 ± 0.88 kg/m3
- mass density (360 K, 4614.4 kPa, Liquid): 868.64 ± 0.85 kg/m3
- mass density (360 K, 5110 kPa, Liquid): 878.67 ± 0.82 kg/m3
- mass density (360 K, 5611.7 kPa, Liquid): 887.84 ± 0.79 kg/m3
- mass density (360 K, 6201.7 kPa, Liquid): 897.63 ± 0.77 kg/m3
- mass density (360 K, 6215.7 kPa, Liquid): 897.87 ± 0.77 kg/m3
- mass density (360 K, 6705.8 kPa, Liquid): 905.3 ± 0.74 kg/m3
- mass density (360 K, 7100.8 kPa, Liquid): 910.94 ± 0.72 kg/m3
- mass density (360 K, Liquid): 805.64 ± 3.5 kg/m3
- vapor or sublimation pressure (360 K, Liquid): 2553.1 ± 4 kPa and 2553.8 ± 4 kPa and 2554.9 ± 4 kPa
- vapor or sublimation pressure (365 K, Liquid): 2823.3 ± 4.4 kPa
- mass density (370 K, 154.7 kPa, Gas, Burnett expansion method): 5.117 ± 0.1 kg/m3
- mass density (370 K, 215.6 kPa, Gas, Burnett expansion method): 7.182 ± 0.1 kg/m3
- mass density (370 K, 230 kPa, Gas, Burnett expansion method): 7.677 ± 0.1 kg/m3
- mass density (370 K, 318.3 kPa, Gas, Burnett expansion method): 10.73 ± 0.1 kg/m3
- mass density (370 K, 340.6 kPa, Gas, Burnett expansion method): 11.52 ± 0.1 kg/m3
- mass density (370 K, 500.1 kPa, Gas, Burnett expansion method): 17.24 ± 0.1 kg/m3
- mass density (370 K, 686.1 kPa, Gas, Burnett expansion method): 24.23 ± 0.1 kg/m3
- mass density (370 K, 728.8 kPa, Gas, Burnett expansion method): 25.88 ± 0.1 kg/m3
- mass density (370 K, 1046.2 kPa, Gas, Burnett expansion method): 38.85 ± 0.11 kg/m3
- mass density (370 K, 1393.4 kPa, Gas, Burnett expansion method): 54.67 ± 0.11 kg/m3
- mass density (370 K, 1468.6 kPa, Gas, Burnett expansion method): 58.37 ± 0.11 kg/m3
- mass density (370 K, 1901.8 kPa, Gas, Burnett expansion method): 82.19 ± 0.11 kg/m3
- mass density (370 K, 1990.6 kPa, Gas, Burnett expansion method): 87.72 ± 0.11 kg/m3
- mass density (370 K, 2469.3 kPa, Gas, Burnett expansion method): 123.6 ± 0.1 kg/m3
- mass density (370 K, 2559 kPa, Gas, Burnett expansion method): 132 ± 0.1 kg/m3
- mass density (370 K, 2970.3 kPa, Gas, Burnett expansion method): 185.3 ± 0.2 kg/m3
- mass density (370 K, 3031.6 kPa, Gas, Burnett expansion method): 197.4 ± 0.2 kg/m3
- mass density (370 K, 3130.2 kPa, Liquid): 712.6 ± 1.4 kg/m3
- mass density (370 K, 3147.8 kPa, Liquid): 715.08 ± 1.4 kg/m3
- mass density (370 K, 3586 kPa, Liquid): 754.94 ± 1.3 kg/m3
- mass density (370 K, 4068.1 kPa, Liquid): 781.44 ± 1.2 kg/m3
- mass density (370 K, 4642.5 kPa, Liquid): 804.25 ± 1.1 kg/m3
- mass density (370 K, 5159.1 kPa, Liquid): 820.53 ± 1.1 kg/m3
- mass density (370 K, 5641.4 kPa, Liquid): 833.56 ± 1.1 kg/m3
- mass density (370 K, 6176.7 kPa, Liquid): 846.09 ± 1 kg/m3
- mass density (370 K, 6712.7 kPa, Liquid): 857.24 ± 0.99 kg/m3
- mass density (370 K, 7155.1 kPa, Liquid): 865.58 ± 0.97 kg/m3
- mass density (370 K, Liquid): 711.78 ± 4.7 kg/m3
- vapor or sublimation pressure (370 K, Liquid): 3116.4 ± 4.8 kPa and 3117.3 ± 4.8 kPa and 3117.1 ± 4.8 kPa
- vapor or sublimation pressure (375 K, Liquid): 3435.7 ± 5.3 kPa
- mass density (380 K, 147.8 kPa, Gas, Burnett expansion method): 4.751 ± 0.1 kg/m3
- mass density (380 K, 158.9 kPa, Gas, Burnett expansion method): 5.114 ± 0.1 kg/m3
- mass density (380 K, 220.5 kPa, Gas, Burnett expansion method): 7.14 ± 0.1 kg/m3
- mass density (380 K, 236.5 kPa, Gas, Burnett expansion method): 7.671 ± 0.1 kg/m3
- mass density (380 K, 327.6 kPa, Gas, Burnett expansion method): 10.73 ± 0.1 kg/m3
- mass density (380 K, 345.8 kPa, Gas): 11.4 ± 0.29 kg/m3
- mass density (380 K, 350.5 kPa, Gas, Burnett expansion method): 11.51 ± 0.1 kg/m3
- mass density (380 K, 411.6 kPa, Gas): 13.64 ± 0.3 kg/m3
- mass density (380 K, 483.9 kPa, Gas, Burnett expansion method): 16.12 ± 0.1 kg/m3
- mass density (380 K, 515.4 kPa, Gas, Burnett expansion method): 17.23 ± 0.1 kg/m3
- mass density (380 K, 637.2 kPa, Gas): 21.72 ± 0.33 kg/m3
- mass density (380 K, 708.4 kPa, Gas, Burnett expansion method): 24.22 ± 0.1 kg/m3
- mass density (380 K, 752.6 kPa, Gas, Burnett expansion method): 25.86 ± 0.1 kg/m3
- mass density (380 K, 1023.5 kPa, Gas, Burnett expansion method): 36.37 ± 0.11 kg/m3
- mass density (380 K, 1069 kPa, Gas): 38.43 ± 0.39 kg/m3
- mass density (380 K, 1084 kPa, Gas, Burnett expansion method): 38.82 ± 0.11 kg/m3
- mass density (380 K, 1190.9 kPa, Gas): 43.52 ± 0.41 kg/m3
- mass density (380 K, 1450 kPa, Gas, Burnett expansion method): 54.63 ± 0.11 kg/m3
- mass density (380 K, 1529.5 kPa, Gas, Burnett expansion method): 58.32 ± 0.11 kg/m3
- mass density (380 K, 1736.8 kPa, Gas): 68.74 ± 0.51 kg/m3
- mass density (380 K, 1994.4 kPa, Gas, Burnett expansion method): 82.12 ± 0.11 kg/m3
- mass density (380 K, 2092.4 kPa, Gas, Burnett expansion method): 87.73 ± 0.11 kg/m3
- mass density (380 K, 2282.2 kPa, Gas): 99.68 ± 0.64 kg/m3
- mass density (380 K, 2624.1 kPa, Gas, Burnett expansion method): 123.5 ± 0.1 kg/m3
- mass density (380 K, 2726.4 kPa, Gas, Burnett expansion method): 131.8 ± 0.1 kg/m3
- mass density (380 K, 2913 kPa, Gas): 148.72 ± 0.85 kg/m3
- mass density (380 K, 3233.6 kPa, Gas, Burnett expansion method): 185.9 ± 0.2 kg/m3
- mass density (380 K, 3316.9 kPa, Gas, Burnett expansion method): 198.3 ± 0.2 kg/m3
- mass density (380 K, 3383.7 kPa, Gas): 207.93 ± 1.1 kg/m3
- mass density (380 K, 3647 kPa, Gas, Burnett expansion method): 276.7 ± 0.4 kg/m3
- mass density (380 K, 3672.6 kPa, Gas): 287.87 ± 1.5 kg/m3
- mass density (380 K, 3686.3 kPa, Gas, Burnett expansion method): 294.2 ± 0.7 kg/m3
- mass density (380 K, 3776.4 kPa, Gas, Burnett expansion method): 381.1 ± 4.7 kg/m3
- mass density (380 K, 3786.4 kPa, Gas, Burnett expansion method): 439.7 ± 1 kg/m3
- mass density (380 K, 3791.1 kPa, Gas): 430.78 ± 2.3 kg/m3
- mass density (380 K, 3807.7 kPa, Liquid): 489.63 ± 2.4 kg/m3
- mass density (380 K, 4003.4 kPa, Liquid): 629 ± 1.9 kg/m3
- mass density (380 K, 4596.7 kPa, Liquid): 707.34 ± 1.6 kg/m3
- mass density (380 K, 5159.5 kPa, Liquid): 743.66 ± 1.5 kg/m3
- mass density (380 K, 5653.6 kPa, Liquid): 766.09 ± 1.4 kg/m3
- mass density (380 K, 6175.8 kPa, Liquid): 785.18 ± 1.3 kg/m3
- mass density (380 K, 6672.5 kPa, Liquid): 800.32 ± 1.3 kg/m3
- mass density (380 K, 7138.9 kPa, Liquid): 812.7 ± 1.2 kg/m3
